# Results taken from US20140249135A1, “PIM KINASE INHIBITORS AND METHODS OF THEIR USE” (NOVARTIS AG, priority 2007, published 2014).
# Where two headings read alike, the source gives them in different places.
# How the values were obtained:
# Format in all cases: biochemical
# Pim2 kinase = Pim2 kinase (Homo sapiens, UniProt Q9P1W9); assay: Pim2 ATP depletion assay;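 further: Luciferase-based luminescent readout of ATP remaining after PIM2 phosphorylates a BAD peptide, final 5 nM enzyme, 4 µM ATP, 10 µM peptide, 2.5% DMSO, run to roughly half ATP consumption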
# Pim3 kinase = Pim3 kinase (Homo sapiens, UniProt Q86V86); assay: Pim3 ATP depletion assay
# Pim1 kinase = Pim1 kinase (Homo sapiens, UniProt P11309); assay: Pim1 ATP depletion assay; details: Pim1 ATP depletion assay;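 further: Luciferase-luciferin luminescence readout of residual ATP after PIM1 transfers phosphate to a peptide substrate, 40 µM ATP added, reaction run to roughly half ATP consumption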
# Chain of Pim1 kinase (P11309 whole entry): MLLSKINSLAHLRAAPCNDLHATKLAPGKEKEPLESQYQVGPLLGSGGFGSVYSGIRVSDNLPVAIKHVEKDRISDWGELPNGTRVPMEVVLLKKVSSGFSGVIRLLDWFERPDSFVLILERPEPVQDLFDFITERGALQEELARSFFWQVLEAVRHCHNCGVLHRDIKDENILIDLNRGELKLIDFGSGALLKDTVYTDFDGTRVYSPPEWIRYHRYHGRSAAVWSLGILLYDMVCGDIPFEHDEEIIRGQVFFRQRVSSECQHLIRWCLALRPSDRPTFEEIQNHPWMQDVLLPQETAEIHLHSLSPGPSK
# Chain of Pim2 kinase (Q9P1W9 whole entry): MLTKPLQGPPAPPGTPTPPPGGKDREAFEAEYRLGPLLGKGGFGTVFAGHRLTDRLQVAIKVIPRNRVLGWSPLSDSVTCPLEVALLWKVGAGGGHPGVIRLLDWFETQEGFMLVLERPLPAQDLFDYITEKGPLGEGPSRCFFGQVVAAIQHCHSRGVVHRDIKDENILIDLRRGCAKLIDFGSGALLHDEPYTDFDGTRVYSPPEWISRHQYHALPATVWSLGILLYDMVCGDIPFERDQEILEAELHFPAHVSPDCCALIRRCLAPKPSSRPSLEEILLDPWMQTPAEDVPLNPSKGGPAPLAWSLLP
Structure (SMILES),IC50 (Pim2 kinase; read-out: IC50 (μM) PIM2) [µM],IC50 (Pim3 kinase; read-out: IC50 (μM) PIM3) [µM],IC50 (Pim1 kinase; read-out: IC50 (μM) PIM1) [µM],IC50 (Pim2 kinase; read-out: PIM2 IC50) [µM],IC50 (Pim3 kinase; read-out: PIM3 IC50) [µM],IC50 (Pim1 kinase; read-out: PIM1 IC50) [µM]
"Nc1ncc(-c2cccc(C(=O)N3CCOCC3)c2)nc1C(=O)Nc1ccccc1N1CCNCC1 [Example 398, 3-amino-6-[3-(morpholine-4-carbonyl)-phenyl]-pyrazine-2-carboxylic acid (2-piperazin-1-yl-phenyl)-amide]",10 to 25,1 to 10,1 to 10,,,
"Nc1cnc(-c2c(F)cccc2F)nc1C(=O)Nc1cnccc1N1CC[C@@H](O)[C@H](N)C1 (stereo in doubt) [Example 663, 5-Amino-2-(2,6-difluoro-phenyl)-pyrimidine-4-carboxylic acid (3-amino-4-hydroxy-3,4,5,6-tetrahydro-2H-[1,4′]bipyridinyl-3′-yl)-amide]",,,,< 1,< 1,< 1
"Nc1nccc(-c2ccncc2NC(=O)c2nc(-c3c(F)cccc3F)ccc2N)n1 [Example 628, 3-amino-N-[4-(2-aminopyrimidin-4-yl)pyridin-3-yl]-6-(2,6-difluorophenyl)pyridine-2-carboxamide]",,,,< 1,< 1,< 1
"Nc1ccc(-c2c(F)cccc2F)nc1C(=O)Nc1cnccc1N1CCC[C@H](O)C1 [Example 653, 3-Amino-6-(2,6-difluoro-phenyl)-pyridine-2-carboxylic acid (3-hydroxy-3,4,5,6-tetra-hydro-2H-[1,4′]bipyridinyl-3′-yl)-amide]",,,,< 1,< 1,< 1
"COc1ccc(F)c(-c2nc(C(=O)Nc3cnccc3N3CCC[C@H](N)C3)c(N)cc2F)c1F [Example 510, 3-Amino-6-(2,6-difluoro-3-methoxy-phenyl)-5-fluoro-pyridine-2-carboxylic acid (3-amino-3,4,5,6-tetrahydro-2H-[1,4′]bipyridinyl-3′-yl)-amide]",< 1,< 1,< 1,,,
"Nc1cnc(-c2ccccc2F)nc1C(=O)Nc1cnccc1N1C[C@H](N)C[C@H](N)C1 [Example 247, 5-Amino-2-(2-fluoro-phenyl)-pyrimidine-4-carboxylic acid (3,5-diamino-3,4,5,6-tetrahydro-2H-[1,4′]bipyridinyl-3′-yl)-amide]",< 1,< 1,< 1,,,
"N#Cc1ccc(-c2ccc(N)c(C(=O)Nc3cnccc3N3CCC[C@H](N)C3)n2)c(F)c1 [Example 686, 3-Amino-6-(4-cyano-2-fluoro-phenyl)-pyridine-2-carboxylic acid (3-amino-3,4,5,6-tetra-hydro-2H-[1,4′]bipyridinyl-3′-yl)-amide]",,,,< 1,< 1,< 1
"COc1cc(-c2ccncc2NC(=O)c2nc(-c3c(F)cccc3F)ccc2N)cc(N)n1 [Example 608, 3-Amino-6-(2,6-difluoro-phenyl)-pyridine-2-carboxylic acid (6′-amino-2′-methoxy-[4,4′]bi-pyridinyl-3-yl)-amide]",,,,< 1,< 1,< 1
"Cc1nc(N)cc(-c2ccncc2NC(=O)c2nc(-c3cc(C(=O)NC(C)C)ccc3F)ccc2N)n1 [Example 273, 3-Amino-6-(2-fluoro-5-isopropylcarbamoyl-phenyl)-pyridine-2-carboxylic acid [4-(6-amino-2-methyl-pyrimidin-4-yl)-pyridin-3-yl]-amide]",< 1,< 1,< 1,,,
"Cc1ccsc1-c1ccc(N)c(C(=O)Nc2cnccc2N2CCC[C@H](N)C2)n1 [Example 448, 3-Amino-6-(3-methyl-thiophen-2-yl)-pyridine-2-carboxylic acid (3-amino-3,4,5,6-tetrahydro-2H-[1,4′]bipyridinyl-3′-yl)-amide]",< 1,< 1,< 1,,,
"CC(C)NC(=O)c1ccc(F)c(-c2ccc(N)c(C(=O)Nc3cnccc3N3CC[C@H](F)[C@H](N)C3)n2)c1 [Example 258, 3-Amino-6-(2-fluoro-5-isopropylcarbamoyl-phenyl)-pyridine-2-carboxylic acid (3-amino-4-fluoro-3,4,5,6-tetra-hydro-2H-[1,4′]bipyridinyl-3′-yl)-amide]",< 1,< 1,< 1,,,
"COc1ccc(F)c(-c2nc(C(=O)Nc3cnccc3N3CCC[C@H](N)C3)c(N)cc2F)c1 [Example 502, 3-Amino-5-fluoro-6-(2-fluoro-5-methoxy-phenyl)-pyridine-2-carboxylic acid (3-amino-3,4,5,6-tetrahydro-2H-[1,4′]bipyridinyl-3′-yl)-amide]",< 1,< 1,< 1,,,
"CC(C)Oc1ccc(F)c(-c2ccc(N)c(C(=O)Nc3cnccc3N3CCC[C@H](N)C3)n2)c1 [Example 467, 3-Amino-6-(2-fluoro-5-isopropoxy-phenyl)-pyridine-2-carboxylic acid (3-amino-3,4,5,6-tetrahydro-2H-[1,4′]bipyridinyl-3′-yl)-amide]",< 1,< 1,< 1,,,
"COc1cc(-c2ccc(N)c(C(=O)Nc3cnccc3N3CCC[C@H](N)C3)n2)cnc1N [Example 416, 5,6′-diamino-5′-methoxy-[2,3′]bi-pyridinyl-6-carboxylic acid ((S)-3-amino-3,4,5,6-tetrahydro-2H-[1,4′]bipyridinyl-3′-yl)-amide]",< 1,< 1,< 1,,,
"CC(=O)Nc1cccc(-c2nc(C(=O)Nc3cnccc3N3CCC[C@H](N)C3)c(N)cc2F)c1 [Example 500, 6-(3-Acetylamino-phenyl)-3-amino-5-fluoro-pyridine-2-carboxylic acid (3-amino-3,4,5,6-tetrahydro-2H-[1,4′]bipyridinyl-3′-yl)-amide]",< 1,< 1,< 1,,,
"Nc1ccc(C2CCCCC2)nc1C(=O)Nc1cnccc1N1CCC[C@H](N)C1 [Example 636, 3-Amino-6-cyclohexyl-pyridine-2-carboxylic acid (3-amino-3,4,5,6-tetrahydro-2H-[1,4′]bipyridinyl-3′-yl)-amide]",,,,,< 1,< 1
"COc1nc(N)cc(-c2ccncc2NC(=O)c2nc(-c3c(F)cccc3F)ccc2N)n1 [Example 271, 3-Amino-6-(2,6-difluoro-phenyl)-pyridine-2-carboxylic acid [4-(6-amino-2-methoxy-pyrimidin-4-yl)-pyridin-3-yl]-amide]",< 1,< 1,< 1,,,
"Nc1ccc(-c2ccccc2F)nc1C(=O)Nc1cnccc1N1C[C@@H](N)C[C@@H](O)C1 [Example 678, 3-Amino-6-(2-fluoro-phenyl)-pyridine-2-carboxylic acid (5-amino-3-hydroxy-3,4,5,6-tetra-hydro-2H-[1,4′]bipyridinyl-3′-yl)-amide]",,,,< 1,< 1,< 1
"Nc1ccc(-c2nccs2)nc1C(=O)Nc1cnccc1N1CC[C@@H](O)[C@H](N)C1 [Example 669, 3-Amino-6-thiazol-2-yl-pyridine-2-carboxylic acid (3-amino-4-hydroxy-3,4,5,6-tetra-hydro-2H-[1,4′]bipyridinyl-3′-yl)-amide]",,,,< 1,< 1,< 1
"CC1CC(N)CN(c2ccncc2NC(=O)c2ccc(F)c(-c3ccccc3F)n2)C1 (stereo not drawn) [Example 287, 5-Fluoro-6-(2-fluoro-phenyl)-pyridine-2-carboxylic acid (3-amino-5-methyl-3,4,5,6-tetra-hydro-2H-[1,4′]bipyridinyl-3′-yl)-amide]",,< 1,,,,
